Experiments:
[1] = 101.33 kPa, Liquid; for viscosity: Capillary tube (Ostwald / Ubbelohde) method; for mass density: Vibrating tube method
[2] = refractive index (Na D-line) (dimensionless); details: 101.33 kPa, Liquid, Standard Abbe refractometry

CCO [ethanol]
Details	mass density, 298.15 K [kg/m3]	mass density, 303.15 K [kg/m3]	mass density, 308.15 K [kg/m3]	refractive index, 298.15 K	refractive index, 303.15 K	refractive index, 308.15 K	viscosity, 298.15 K [mPa·s]	viscosity, 303.15 K [mPa·s]	viscosity, 308.15 K [mPa·s]
[1]	785.9	780.2	776.5	–	–	–	1.09	0.95	0.87
[2]	–	–	–	1.3593	1.3573	1.3556	–	–	–

Source: the NIST ThermoML archive (doi:10.1016/j.jct.2013.09.006)
